Legend:
[1] = system: BMDMs; assay: AmTARS-stimulated BMDMs pre-treated with kinase/CREB inhibitors; format: cell-based, mouse; details: for IL-10 production by AmTARS: BMDMs pre-treated 1 h with inhibitor (10 μM; 666-15 1 μM) before AmTARS 24 h; for macrophage polarization (CD206 positive) by AmTARS: BMDMs pre-treated 1 h with inhibitor before AmTARS 24 h
Description: (A and B) Analysis of key molecules that inhibit the MAPK and PI3K/AKT signaling pathways. IL-10 produced by BMDMs pre-treated with inhibitors of ERK (PD98059, […]), p38 (SB203580, […]), MSK1/2 (SB747651A, 10 μM), CREB (666-15, 1 μM), PI3K (Wortmannin, 10 μM), and AKT1/2 (AKT1/2, 10 μM) for 1 h before treatment with either PBS or AmTARS for 24 h (n=6 per group) (A). Flow cytometry analysis of M2 macrophages in BMDMs pre-treated for 1 h with the indicated kinase inhibitors, before treatment with either PBS or AmTARS for 24 h (n=3 per group) (B). (C and D) Western blot analysis of MAPK signaling molecules in lysates of BMDMs (C) or THP1 cells (D) treated for different times with 0.5 μM AmTARS. (E) Western blot analysis of lysates of BMDMs pre-treated with α-IgG (Isotype, 1 μg ml-1) or α-TLR2 (1 μg ml-1) for 1 h before treatment with PBS, AmTARS (0.5 μM), or Pam3 (0.5 μM) for 30 min. (F and G) Western blot analysis of PI3K/AKT signaling molecules in lysates of BMDMs (F) or THP1 cells (G) treated with 0.5 μM AmTARS. […] Activation of AKT, ERK, and CREB was measured by western blot analysis of lysates of THP1 cells pre-treated with α-IgG, α-TLR1, α-TLR2, or α-TLR6 (1 μg ml-1) for 1 h before treatment for 30 min with PBS or AmTARS (0.5 µM). […] P-values were calculated using an unpaired two-tailed Student's t-test. Data shown in (C-H) are representative and repeated at least three times.
To identify the signaling pathway triggered by AmTARS, we first evaluated kinases and CREB. IL-10 production and M2 polarization were measured in BMDMs treated with inhibitors of ERK (PD98059), p38 (SB203580), MSK1/2 (SB747651A), CREB (666-15), PI3K (Wortmannin) and AKT (AKT1/2) before subsequent stimulation with AmTARS.

[2] = system: mouse bone marrow-derived macrophages (BMDMs); assay: ELISA of immune cytokine secretion in LPS-treated BMDMs (inflammatory environment); format: cell-based
Description: To determine whether AmTARS affects immune cytokine secretion when cellular inflammation was induced, mouse bone marrow-derived macrophages BMDMs as mouse-derived immune cells and human macrophages THP1 as human-derived immune cells were cultured by way of the same method as in Example 2.
Specifically, the cultured BMDMs and THP1 were treated with lipopolysaccharide (LPS) to induce an inflammatory response and were simultaneously treated with AmTARS at 0.1 μM, 0.2 μM, and 0.5 μM for 24 h to obtain cell cultures. The obtained cell cultures were analyzed for immune cytokine secretion by way of the same method as in Example 2.
Next, BMDMs were treated with LPS to create an inflammatory environment by way of the same method as in Example 3, and then treated with each TARS (AmTARS, BfTARS, eTARS, and hTARS) to investigate the secretion of IL-10.
An inflammatory environment was created through LPS in BMDMs by way of the same method as in Example 3, and then the cells were treated with the four types of fragments, and the immune cytokine secretion was determined by ELISA.

[3] = system: mouse bone marrow-derived macrophages (BMDMs); assay: ELISA of immune cytokine secretion in BMDMs under normal conditions; format: cell-based; details: normal (non-inflammatory) conditions, 24 h
Description: Specifically, mouse bone marrow-derived macrophages (BMDMs) as mouse-derived immune cells were extracted from the mouse thighbone and shinbone, and then cultured in DMEM containing 10% fetal bovine serum (FBS) and antibiotics. Human macrophages (THP1) as human-derived immune cells were cultured in RPMI media containing 10% FBS and antibiotics.
The cultured cells were treated with AmTARS at 0.1 μM, 0.2 μM, and 0.5 μM for 24 h to obtain cell cultures. For cell removal, the media were centrifuged at 500×g for 10 min to obtain supernatants, which were then analyzed using an ELISA set (mouse interleukin (IL)-6, mouse IL-10, mouse tumor necrosis factor (TNF)-α, human IL-6, human IL-10, human TNF-α; BD Biosciences) to investigate the secretion of mouse- and human-derived immune cytokines. […]

[4] = Aminoacylation reaction (malachite green phosphate assay); format: biochemical; details: L-threonine, ATP, 30 min, free Pi at 620 nm
Description: TARS is an […] involved in protein synthesis, and the domain and site involved in its function are well known. The constructed deletion mutants were confirmed to have deletions of parts irrelevant to the function, but the aminoacylation reaction experiment was conducted to determine whether the deletion mutants performed the intrinsic functions thereof appropriately.
Specifically, a 2× reaction solution (100 mM Tris-HCl (pH 7.5), 20 mM MgCl2, 200 mM NaCl, 200 mM KCl, 2 mM DTT, 500 μM ATP, and 5 mM L-threonine) was prepared, and 25 μL of a reaction solution, 20 μL of distilled water, and 5 μL of protein were added to make a final 50 μL volume, followed by incubation for 30 min. Thereafter, a reaction was conducted using a malachite green phosphate assay kit (Bioassay Systems) for 30 min, and the free monophosphate group (Pi) was measured at a wavelength of 620 nm.

[5] = LPS-induced inflammatory environment, 24 h

| Molecule | IL-10 production by AmTARS [1] | macrophage polarization (CD206 positive) by AmTARS [1] | secretion of IL-10 [2, 5] | also measured |
| --- | --- | --- | --- | --- |
| CCn1c(-c2nonc2N)nc2cncc(CNC3CCNCC3)c21 [SB747651A] | significant suppression | significant suppression |  |  |
| C[S+]([O-])c1ccc(-c2nc(-c3ccncc3)c(-c3ccc(F)cc3)[nH]2)cc1 (stereo not shown) [SB203580] | significant suppression | significant suppression |  |  |
| R2: Functional site 2 peptide, SEQ ID NO: 4, residues 290-312 of SEQ ID NO: 1 (KLSQEGASCAELFNGLATGTIEG; Functional region 2(290˜312)) |  |  | increased | secretion of IL-6 ([2]; LPS, peptide 100 μM): reduced; secretion of IL-10 ([2]; LPS, peptide 100 μM): increased; secretion of IL-6 ([2]; LPS, peptide 300 μM): reduced; secretion of IL-10 ([2]; LPS, peptide 300 μM): increased; secretion of IL-6 [2, 5]: reduced |
| COc1cccc(-c2cc(=O)c3ccccc3o2)c1N [PD98059] | significant suppression | significant suppression |  |  |
| O=c1[nH]c2ccccc2n1C1CCN(Cc2ccc(-c3nc4cc5[nH]cnc5cc4nc3-c3ccccc3)cc2)CC1 [AKT1/2] | significant suppression | significant suppression |  |  |
| BfTARS: TARS derived from Bacteroides fragilis (protein, 6xHis tag; misc_feature 1..1941 Bacteroides fragilis TARS) MIKITFPDGSVREYNEGVNGLQIAESISSRLAQDVLACGVNGEIYDLGRPINEDASVVLYKWEDEQGKHAFWHTSAHLLAEALQELYPGIQFGIGPAIENGFYYDVDPGEAVIKEADLPAIEAKMAELVAKKEAVVRRDIAKGDALKMFGDRGETYKCELISELEDGHITTYTQGDFTDLCRGPHLMTTAPIKAIKLTSVAGAYWRGHEDRKMLTRIYGITFPKKKMLDEYLALMEEAKKRDHRKIGKEMQLFMFSDTVGKGLPMWLPKGTALRLRLQDFLRRIQTRYDYQEVITPPIGNKLLYVTSGHYAKYGKDAFQPIHTPEEGEEYFLKPMNCPHHCEIYKNFPRSYKDLPLRIAEFGTVCRYEQSGELHGLTRVRSFTQDDAHIFCRPDQVKGEFLRVMDIISIVFRSMDFDNFEAQISLRDKVNREKYIGSDENWEKAEQAIIEACEEKGLKAKIEYGEAAFYGPKLDFMVKDAIGRRWQLGTIQVDYNLPERFELEYMGSDNQKHRPVMIHRAPFGSMERFVAVLIEHTAGKFPLWLTPEQVVILPISEKFNEYAEKVKTYLKMKEIRAIVDDRNEKIGRKIRDNEMKRIPYMLIVGEKEAENGEVSVRRQGEGDKGTMKFEEFGEILNEEVQNMINKW |  |  | not significantly increased |  |
| eTARS: TARS derived from E. coli (protein, 6xHis tag; misc_feature 1..1929 Escherichia coli TARS) MPVITLPDGSQRHYDHAVSPMDVALDIGPGLAKACIAGRVNGELVDACDLIENDAQLSIITAKDEEGLEIIRHSCAHLLGHAIKQLWPHTKMAIGPVIDNGFYYDVDLDRTLTQEDVEALEKRMHELAEKNYDVIKKKVSWHEARETFANRGESYKVSILDENIAHDDKPGLYFHEEYVDMCRGPHVPNMRFCHHFKLMKTAGAYWRGDSNNKMLQRIYGTAWADKKALNAYLQRLEEAAKRDHRKIGKQLDLYHMQEEAPGMVFWHNDGWTIFRELEVFVRSKLKEYQYQEVKGPFMMDRVLWEKTGHWDNYKDAMFTTSSENREYCIKPMNCPGHVQIFNQGLKSYRDLPLRMAEFGSCHRNEPSGSLHGLMRVRGFTQDDAHIFCTEEQIRDEVNGCIRLVYDMYSTFGFEKIVVKLSTRPEKRIGSDEMWDRAEADLAVALEENNIPFEYQLGEGAFYGPKIEFTLYDCLDRAWQCGTVQLDFSLPSRLSASYVGEDNERKVPVMIHRAILGSMERFIGILTEEFAGFFPTWLAPVQVVIMNITDSQSEYVNELTQKLSNAGIRVKADLRNEKIGFKIREHTLRRVPYMLVCGDKEVESGKVAVRTRRGKDLGSMDVNEVIEKLQQEIRSRSLKQLEE |  |  | not significantly increased | secretion/production of IL-10 [3]: no anti-inflammatory immune function |
| hTARS: TARS derived from Homo sapiens (protein, 6xHis tag; misc_feature 1..2175 Homo sapiens TARS) MFEEKASSPSGKMGGEEKPIGAGEEKQKEGGKKKNKEGSGDGGRAELNPWPEYIYTRLEMYNILKAEHDSILAEKAEKDSKPIKVTLPDGKQVDAESWKTTPYQIACGISQGLADNTVIAKVNNVVWDLDRPLEEDCTLELLKFEDEEAQAVYWHSSAHIMGEAMERVYGGCLCYGPPIENGFYYDMYLEEGGVSSNDFSSLEALCKKIIKEKQAFERLEVKKETLLAMFKYNKFKCRILNEKVNTPTTTVYRCGPLIDLCRGPHVRHTGKIKALKIHKNSSTYWEGKADMETLQRIYGISFPDPKMLKEWEKFQEEAKNRDHRKIGRDQELYFFHELSPGSCFFLPKGAYIYNALIEFIRSEYRKRGFQEVVTPNIFNSRLWMTSGHWQHYSENMFSFEVEKELFALKPMNCPGHCLMFDHRPRSWRELPLRLADFGVLHRNELSGALTGLTRVRRFQQDDAHIFCAMEQIEDEIKGCLDFLRTVYSVFGFSFKLNLSTRPEKFLGDIEVWDQAEKQLENSLNEFGEKWELNSGDGAFYGPKIDIQIKDAIGRYHQCATIQLDFQLPIRFNLTYVSHDGDDKKRPVIVHRAILGSVERMIAILTENYGGKWPFWLSPRQVMVVPVGPTCDEYAQKVRQQFHDAKFMADIDLDPGCTLNKKIRNAQLAQYNFILVVGEKEKISGTVNIRTRDNKVHGERTISETIERLQQLKEFRSKQAEEEF |  |  | not significantly increased |  |
| Akkermansia muciniphila-derived YARS (protein, 6xHis tag; misc_feature 1..1182 Akkermansia muciniphila YARS, Akkermansia muciniphila tyrosyl-tRNA synthetase, used as control) MTIDEQLDILMGGTAVVISREELKERLKLGRPLRVKLGVDPTAPDIHLGHTVAIEKLRQFQELGHQAVLLIGDFTATIGDPSGRSVTRPPLSREQVLENAETYTKQAFKILDRDKTEIVYNGDWFRKMTYEEVLKLNSRVTMQQMLAREDFKARVEGGKEVRLHEMQYPIMQGWDSVEIRADVELGGTDQLFNILVGRDLQKEEGMLPQIAMTMPLLEGLDGVRKMSKSYGNYVGVDESPEMMFGKMMSASDELMDRYYLVLLGEKRDMGLHPMEAKKLLAWKITARYHDSAAADAARSDWETRFSKRDLAAADLPEVEIASLPADMNALALVSFLFENVFQVKKSNGVLRKEHFTPGAIQLNDVKMTDPSAVLELAPGSILRLSKKHAVRFK |  |  |  | aminoacylation reaction / enzymatic activity [4]: no reaction |
